Results on one compound are retold here after patent US20250213494A1, “METHODS AND COMPOSITIONS FOR POTENTIATION OF A LIGAND” (priority 2022, published 2025).

Molecules are shown by their SMILES.

For this experiment, the system named is RXFP1 gene expression in human fibroblast like synoviocytes. The experiment is described as follows: RXFP1 gene expression by qPCR after corticosteroid treatment under fibrotic conditions. In kind it is cell-based. The following applies: qPCR (FIG. 3).

Text: RXFP1 gene expression after treatment with (left) dexamethasone, (middle) methylprednisolone, and (right) cortisone under fibrotic conditions.

With `C[C@]12CCC(=O)C=C1CC[C@@H]1[C@@H]2C(=O)C[C@@]2(C)[C@H]1CC[C@]2(O)C(=O)CO` [cortisone], the RXFP1 gene expression result is “increases RXFP1 gene expression”.
